Active and inactive are the calls of the source. No cut-off for these calls is given here.
Experiments:
[1] = test system: Lepidium sativum; test: Herbicidal activity against Lepidium sativum assessed as occurrence of browning and tissue necrosis; type: functional, organism-based
[2] = test system: Lepidium sativum; test: Herbicidal activity against Lepidium sativum assessed as inhibition of radicle growth of seeds at 1 to 2 ppm after 69 to 75 hrs in dark; type: functional; set-up: scale not given: the % may be the effect or the level left
[3] = test system: Lepidium sativum; test: Herbicidal activity against Lepidium sativum assessed as inhibition of radicle growth of seed at 3 to 4 ppm after 69 to 75 hrs in dark; type: functional, organism-based
[4] = Toxicity in ip dosed mouse; type: organism-based; settings: in vivo
[5] = test system: Rattus norvegicus; test: Acute toxicity in rat at 2500 to 5000 mg/kg, po; type: organism-based; set-up: dose 2500-5000 mg/kg, route oral; settings: in vivo

**Q.** What does the source list for `CO[C@@H]1C[C@@H](C[C@H]2CC[C@H](C)[C@H]([C@@H](C)C(=O)O)O2)O[C@]2(O[C@](C)([C@H]3CC[C@@](C)([C@@H]4O[C@@H]([C@H]5O[C@@](O)(CO)[C@H](C)C[C@@H]5C)C[C@@H]4C)O3)C[C@H]2C)[C@@H]1C` [NIGERICIN]?
**A.** Activity [1]: inactive; Activity [2]: 50%; Activity [3]: Active; LD50 [4]: 10 mg/kg

**Q.** Which Activity [5] does the source give for `COC1=C2C[C@@H](C)C[C@H](OC)[C@H](O)[C@@H](C)/C=C(\C)[C@H](OC(N)=O)[C@@H](OC)/C=C\C=C(/C)C(=O)NC(=CC1=O)C2=O` [GELDANAMYCIN] here?
**A.** Its Activity is “Toxic”.

**Q.** And the Activity [2]?
**A.** The Activity was 50%.

**Q.** What about the Activity [3] of the same compound?
**A.** The Activity was “Active”.

**Q.** What about the LD50 [4] of the same compound?
**A.** The LD50 was 1 mg/kg.
